Legend:
[1] = target: T1, TrkA/sortilin/EphA2 complex (Homo sapiens, UniProt Q99523); assay: Immunoprecipitation of the TrkA/sortilin/EphA2 complex in cells MDA-MB-231 HA-TrkA; format: cell-based; conditions: MDA-MB-231 HA-TrkA
T1 construct: expressed in transfected cells
T1 sequence (Q99523 78-831): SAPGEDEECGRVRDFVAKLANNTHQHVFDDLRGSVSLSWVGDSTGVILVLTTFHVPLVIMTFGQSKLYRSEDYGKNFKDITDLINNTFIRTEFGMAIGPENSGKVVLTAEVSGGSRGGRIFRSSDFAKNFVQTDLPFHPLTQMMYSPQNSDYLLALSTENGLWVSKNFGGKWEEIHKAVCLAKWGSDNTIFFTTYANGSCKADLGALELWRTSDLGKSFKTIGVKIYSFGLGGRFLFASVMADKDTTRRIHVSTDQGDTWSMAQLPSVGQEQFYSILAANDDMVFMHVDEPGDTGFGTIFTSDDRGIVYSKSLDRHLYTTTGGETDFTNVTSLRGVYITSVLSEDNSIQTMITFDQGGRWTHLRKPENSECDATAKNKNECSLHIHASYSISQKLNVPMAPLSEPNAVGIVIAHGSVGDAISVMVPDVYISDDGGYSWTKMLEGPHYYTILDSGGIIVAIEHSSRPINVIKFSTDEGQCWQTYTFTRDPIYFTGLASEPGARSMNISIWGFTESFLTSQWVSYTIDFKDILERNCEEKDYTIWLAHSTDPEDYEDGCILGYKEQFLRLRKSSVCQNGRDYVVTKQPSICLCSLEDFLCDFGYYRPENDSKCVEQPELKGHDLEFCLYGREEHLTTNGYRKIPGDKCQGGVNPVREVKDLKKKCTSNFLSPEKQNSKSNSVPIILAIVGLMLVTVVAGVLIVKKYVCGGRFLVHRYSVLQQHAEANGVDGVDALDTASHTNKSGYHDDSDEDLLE
Protocol: A. Cells MDA-MB-231 HA-TrkA were transfected with siTrkA and then treated with proNGF N.C.
D. Cells MDA-MB-231 HA-TrkA were transfected with siEphA2 and then treated with proNGF N.C. (30 min).
The sequences of siRNA used against EphA2 (siEphA2) at 100 pmol for each transfection, and against TrkA (pool of 3 siTrkA 1, 2 and 3) are given in table 1. The transfections of siRNA are produced by means of [sequence]in™ according to the manufacturers instructions (POL409-10, Polyplus transfection, Ozyme, Saint Quentin en Yvelines, France).
The beads (Protein G-agarose, Millipore) were washed twice (12,000 g; 1 min; 4° C.) and recovered in PBS IX (at 50% (v/v)). The protein samples (1 mg) were pre-clarified (1 h; 4° C.; on a wheel (10 rpm)) with 100 μl of beads and 5 μg of isotypical antibodies (mouse IgG2b), centrifuged (12,000 g; 2 min; 4° C.), then the supernatant was incubated (2 h; 4° C.; on a wheel (10 rpm)) with 5 μg of α-HA 12CA5 antibody (Roche). The beads (100 μL at 50% in PBS IX) were added directly to the antibody/protein complex then incubated (2 h; 4° C.; on a wheel (10 rpm)). The antibody/antigen/bead complexes were then centrifuged (12,000 g; 5 min; 4° C.), washed three times (lysis buffer; 4° C.), then disassociated by addition of Laemmli 2× buffer (25 mM Tris-HCl, 0.8% SDS, 4% glycerol, 1% β-mercaptoethanol, pH 6.8) (7 min; 100° C.). […]

MDA-MB-231 cells = assay: In vitro invasion test (Boyden chamber), MDA-MB-231; format: cell-based
Protocol: (0.5 nM) for a period of 20 hours. The untreated cells represent the control and determine a base invasion of 100%.
FIG. 3: A study of the involvement of EphA2 on the pro-invasive effects of proNGF. The invasion test is carried out on cells MDA-MB-231 (A), DU145 (B) and PC3 (C) transfected with a siRNA against EphA2 (siEphA2), TrkA (siTrkA) or a random siRNA (siCTRL). The transfected siCTRL cells are treated to provide a control and determine a base invasion of 100% (white column). […] The efficacy of the siRNA is measured by the western blot method through the use of specific antibodies against TrkA, EphA2, and actin (load control).
FIG. 10: Study on the effect of lestaurtinib (TrkA inhibitor) and EphrinA1-Fc (EphA2 inhibitor) and combination of treatment on invasion of breast cancer cells. […] Non-stimulated cells (“non stim”) of proNGF served as the control and determined a base invasion of 100% (white bar).
The Boyden Chambers (Transwell®; BD Biosciences; France) were recovered from a biological matrix (type 1 collagen from rats diluted to 400 μg·mL-1 in EMEM-0.1% FCS medium; Millipore). […] The number of cells was estimated after staining with Hoechst 33 258 (1 mM; 30 min; 20° C.) by counting the nuclei thereof using fluorescence microscopy on a total of 5 five randomly chosen fields (lens 10×; λ-excitation: 345 nm; λ-emission: 478 nm; Eclipse Ti) using the ImageJ software. […]

Substance	formation of the TrkA/sortilin/EphA2 complex under proNGF with invalidation of a receptor ([1]; proNGF N.C., siRNA transfection or 1 μM neurotensin)	invasion induced by proNGF in siRNA-transfected cells (MDA-MB-231 cells; siRNA transfection vs siCTRL, proNGF)	association of TrkA, sortilin and EphA2 (co-immunoprecipitation) under ligand treatment ([1]; 0.5 nM proNGF N.C. or 16 nM NGF, 5 and 30 min)	cell invasion under growth factor (MDA-MB-231 cells; NGF 16 nM or proNGF N.C. 0.5 nM, untreated cells = 100%)
siEphA2: siRNA against EphA2, GCAAGGAAGUGGUACUGCUGGACUU (SEQ ID NO: 1) (listed as RNA, chemistry not given here)	no bond was observed between EphA2 and TrkA	abolished the invasion induced by proNGF	–	–
NGF: Nerve Growth Factor; recombinant human β NGF supplied by Scil Proteins	–	–	induce a delayed association of TrkA and sortilin but does not induce bonding with EphA2	increased cell invasion

Source: patent US20170258871A1, “COMBINED USE OF A TRKA INHIBITOR AND AN EPHA2 INHIBITOR FOR USING IN THE TREATMENT OF SOLID CANCERS, AND METHOD FOR THE PROGNOSIS OF SURVIVAL OF A PATIENT WHO HAS A SOLID CANCER” (UNIVERSITE DES SCIENCES ET TECHNOLOGIES DE LILLE, priority 2014, published 2017)
